{"source": "patent EP4700041A1", "about": "“NOVEL PEPTIDE HAVING ACTIVITY OF RETARDING DEGRADATION OF HYALURONIC ACID AND USES THEREOF” (Caregen Co., Ltd., priority 2023, dated 2026)", "key": {"[1]": {"assay": "Thermal stability of the peptide (HPLC area)", "type": "physicochemical", "conditions": "1000 ppm solution, 50°C vs 25°C, 72 hours, FIG. 7a", "protocol": "The evaluation of thermal stability was performed as follows. A diluted solution of the peptide of Preparation Example 1 at a concentration of 1000 ppm was prepared, dispensed into 50 mL conical tubes, and placed in an incubator at 25°C and 50°C. After 72 hours, 1 mL of each sample was filtered through a 0.22 µm filter. The area values were compared at 25°C based on pH 7 measured by HPLC."}, "[2]": {"assay": "Delay of hyaluronic acid degradation by reactive oxygen species in BDDE-cross-linked filler (Congo Red diffusion, absorbance 500 nm)", "conditions": "37°C, FIG. 6", "protocol": "A 1,4-Butanediol diglycidyl ether (BDDE)-cross-linked hyaluronic acid filler with or without the peptide of Preparation Example 1 was prepared, and Congo Red and hyaluronidase (HAdase) as absorbing dyes were prepared. 20 µL of 1 mM Congo Red was added to each 1.5 mL eppendorf tube, and 100 µL each of the peptide-free filler (control filler) and the peptide-containing filler were added on the absorbing dye. Each was treated with 350 µL of 500 mM hydrogen peroxide (H2O2). Each tube was placed in an incubator at 37°C, and 100 µL of the sample supernatant was collected at time points of 1 hour, 3 hours, 6 hours, 24 hours, 48 hours, and 72 hours and transferred to 96-wells. The absorbance was measured at 500 nm using a microplate reader (SpectraMax iD3, Molecular devices, USA). As above, BDDE-cross-linked hyaluronic acid filler samples with or without the peptide were prepared, and the degree of degradation of hyaluronic acid filler by reactive oxygen species was compared depending on the presence or absence of peptide. The degree of degradation of hyaluronic acid filler was measured by the change in absorbance due to the diffusion of dye. That is, the principle that the flowability of the sample increases when hyaluronic acid is degraded by reactive oxygen species and thus the diffusion of the dye increases was utilized."}, "[3]": {"assay": "Delay of hyaluronic acid degradation by reactive oxygen species in hyaluronic acid solution (viscosity, rheometer)", "conditions": "1.5 wt% hyaluronic acid solution in PBS; peptide 100 ppm, 1000 ppm, 5000 ppm; 500 mM H2O2; 60 and 180 minutes; FIG. 5", "protocol": "Hyaluronic acid was dissolved in PBS to a concentration of 1.5 wt% and hydrated, and 10 g of this solution was dispensed into each conical tube. Peptide solutions were added to the dispensed hyaluronic acid solutions so that the final peptide concentrations were 0 ppm (no addition), 100 ppm, 1000 ppm, and 5000 ppm, respectively. 2 mL of 500 mM hydrogen peroxide (H2O2) was added to each. Viscosity was measured using a rheometer (single shear stress) by sampling at 0, 30, 60, and 180 minutes to compare the viscosity values according to the peptide concentration. As above, 1.5 wt% hyaluronic acid solutions containing peptides at each concentration were treated with hydrogen peroxide to maintain the degradation reaction by reactive oxygen species for 60 and 180 minutes, thereby degrading hyaluronic acid. After the degradation reaction, the viscosity of each hyaluronic acid solution was measured to confirm the degradation delaying efficacy."}, "[4]": {"assay": "pH stability of the peptide (HPLC area)", "type": "physicochemical", "conditions": "1000 ppm solution, pH 4 to pH 10, HPLC area compared with pH 7; FIG. 7b", "protocol": "The evaluation of pH stability was performed as follows. A diluted solution of the peptide of Preparation Example 1 at a concentration of 1000 ppm was prepared, and the initial pH value of the solution was measured (pH = 3.21). 0.5 M NaOH was added so as to titrate the pH of the solution to pH 4, pH 7, and pH 10, respectively. Each sample was filtered through a 0.22 µm filter. The area values were compared based on pH 7 measured by HPLC."}}, "note": "Ends that are not written are not given here.", "data": [{"sequence": "KIWNLEPSRNGT [SEQ ID NO: 1, KIWNLEPSRNGT]", "values": [{"measurement": "thermal stability", "setting": "[1]", "result": "stable"}, {"measurement": "degradation delay improved", "setting": "[2]; BDDE-cross-linked hyaluronic acid filler with peptide vs peptide-free control filler, 24 hours after treatment with 500 mM hydrogen peroxide", "result": "≥ 50", "unit": "%"}, {"measurement": "effect of delaying degradation", "setting": "[2]; BDDE-cross-linked hyaluronic acid filler with peptide, treated for 48 hours with 500 mM hydrogen peroxide", "result": 85, "unit": "%"}, {"measurement": "degradation of hyaluronic acid by reactive oxygen species (viscosity)", "setting": "[3]", "result": "degradation of hyaluronic acid was delayed as the concentration of peptide increased"}, {"measurement": "pH stability", "setting": "[4]", "result": "stable"}]}]}
